# Reference: ChEMBL document CHEMBL3600306, “Sulfonamide bearing pyrazolylpyrazolines as potent inhibitors of carbonic anhydrase isoforms I, II, IX and XII” (Bioorg Med Chem Lett, 2015)
# Target: Carbonic anhydrase 9 (Homo sapiens, UniProt Q16790)
# Experiment: Inhibition of human carbonic anhydrase-9 incubated for 10 mins prior to testing by stopped-flow CO2 hydrase assay
row,Ki [nM],Structure (SMILES)
1,63.1,CC(=O)N1N=C(c2ccccc2)CC1c1c(C)nn(-c2ccc(S(N)(=O)=O)cc2)c1Cl (configuration not stated)
2,70.7,Cc1ccc(C2=NN(c3ccc(S(N)(=O)=O)cc3)C(c3c(C)nn(-c4ccc(S(N)(=O)=O)cc4)c3Cl)C2)cc1 (configuration not stated)
3,6.9,CC(=O)N1N=C(c2ccc(F)cc2)CC1c1c(C)nn(-c2ccc(S(N)(=O)=O)cc2)c1Cl (configuration not stated)
4,44.7,Cc1nn(-c2ccc(S(N)(=O)=O)cc2)c(Cl)c1C1CC(c2ccc(F)cc2)=NN1c1ccc(S(N)(=O)=O)cc1 (configuration not stated)
5,32.9,Cc1nn(-c2ccc(S(N)(=O)=O)cc2)c(Cl)c1C1CC(c2ccc(Cl)cc2)=NN1c1ccc(S(N)(=O)=O)cc1 (configuration not stated)
6,44.4,Cc1nn(-c2ccc(S(N)(=O)=O)cc2)c(Cl)c1C1CC(c2ccc(Br)cc2)=NN1c1ccc(S(N)(=O)=O)cc1 (configuration not stated)
7,56.9,COc1ccc(C2=NN(C(C)=O)C(c3c(C)nn(-c4ccc(S(N)(=O)=O)cc4)c3Cl)C2)cc1 (configuration not stated)
8,71.6,Cc1nn(-c2ccc(S(N)(=O)=O)cc2)c(Cl)c1C1CC(c2ccccc2)=NN1c1ccc(S(N)(=O)=O)cc1 (configuration not stated)
9,67.2,CC(=O)N1N=C(c2ccc(Br)cc2)CC1c1c(C)nn(-c2ccc(S(N)(=O)=O)cc2)c1Cl (configuration not stated)
10,30.8,CC(=O)N1N=C(c2ccc(Cl)cc2)CC1c1c(C)nn(-c2ccc(S(N)(=O)=O)cc2)c1Cl (configuration not stated)
11,52.4,COc1ccc(C2=NN(c3ccc(S(N)(=O)=O)cc3)C(c3c(C)nn(-c4ccc(S(N)(=O)=O)cc4)c3Cl)C2)cc1 (configuration not stated)
12,67.1,CC(=O)N1N=C(c2ccc(C)cc2)CC1c1c(C)nn(-c2ccc(S(N)(=O)=O)cc2)c1Cl (configuration not stated)
